Results: ChEMBL document CHEMBL5653615 (J Biol Chem, 2013)
The source made the active and inactive calls. No cut-off for these calls is given here.

Key:
[1] = target: MAP kinase-activated protein kinase 5 (Homo sapiens) (UniProt Q8IW41); assay: Inhibition of human MAPKAPK5 at 500 nM by HotSpot assay relative to control
[2] = target: Homeodomain-interacting protein kinase 2 (Homo sapiens) (UniProt Q9H2X6); assay: Inhibition of human HIPK2 at 500 nM by HotSpot assay relative to control
[3] = target: T1, Ephrin type-B receptor 1 (Homo sapiens) (UniProt P54762); assay: Inhibition of human EPHB1 at 500 nM by HotSpot assay relative to control
T1 sequence (whole entry): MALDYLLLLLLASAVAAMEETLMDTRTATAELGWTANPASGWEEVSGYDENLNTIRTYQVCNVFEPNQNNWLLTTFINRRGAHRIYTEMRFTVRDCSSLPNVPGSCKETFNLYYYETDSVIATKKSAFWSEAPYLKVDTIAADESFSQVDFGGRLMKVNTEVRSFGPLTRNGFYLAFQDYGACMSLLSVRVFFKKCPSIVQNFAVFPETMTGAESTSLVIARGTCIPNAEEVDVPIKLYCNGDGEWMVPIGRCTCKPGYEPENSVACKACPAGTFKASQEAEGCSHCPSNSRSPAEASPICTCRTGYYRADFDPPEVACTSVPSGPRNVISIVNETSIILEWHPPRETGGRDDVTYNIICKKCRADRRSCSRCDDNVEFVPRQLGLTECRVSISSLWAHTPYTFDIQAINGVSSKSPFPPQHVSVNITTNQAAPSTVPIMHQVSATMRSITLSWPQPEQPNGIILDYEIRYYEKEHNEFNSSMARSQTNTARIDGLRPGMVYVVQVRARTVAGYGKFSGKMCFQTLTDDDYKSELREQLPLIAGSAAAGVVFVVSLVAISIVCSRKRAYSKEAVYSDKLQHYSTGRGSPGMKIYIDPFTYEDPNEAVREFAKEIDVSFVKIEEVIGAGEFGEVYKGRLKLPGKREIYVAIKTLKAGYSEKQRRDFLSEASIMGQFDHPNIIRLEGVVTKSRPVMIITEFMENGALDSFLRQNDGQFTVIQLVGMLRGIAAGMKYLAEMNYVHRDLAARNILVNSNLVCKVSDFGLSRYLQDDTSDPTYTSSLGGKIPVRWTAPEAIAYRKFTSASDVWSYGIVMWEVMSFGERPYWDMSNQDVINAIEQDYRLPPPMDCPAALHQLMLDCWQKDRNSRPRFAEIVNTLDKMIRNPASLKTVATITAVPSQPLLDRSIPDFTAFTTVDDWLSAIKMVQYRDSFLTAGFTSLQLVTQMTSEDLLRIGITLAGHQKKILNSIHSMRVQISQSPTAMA

[4] = target: High affinity nerve growth factor receptor (Homo sapiens) (UniProt P04629); assay: Inhibition of human TRKA at 500 nM by HotSpot assay relative to control
Chain of High affinity nerve growth factor receptor (Homo sapiens) (P04629 33-796 limits assumed): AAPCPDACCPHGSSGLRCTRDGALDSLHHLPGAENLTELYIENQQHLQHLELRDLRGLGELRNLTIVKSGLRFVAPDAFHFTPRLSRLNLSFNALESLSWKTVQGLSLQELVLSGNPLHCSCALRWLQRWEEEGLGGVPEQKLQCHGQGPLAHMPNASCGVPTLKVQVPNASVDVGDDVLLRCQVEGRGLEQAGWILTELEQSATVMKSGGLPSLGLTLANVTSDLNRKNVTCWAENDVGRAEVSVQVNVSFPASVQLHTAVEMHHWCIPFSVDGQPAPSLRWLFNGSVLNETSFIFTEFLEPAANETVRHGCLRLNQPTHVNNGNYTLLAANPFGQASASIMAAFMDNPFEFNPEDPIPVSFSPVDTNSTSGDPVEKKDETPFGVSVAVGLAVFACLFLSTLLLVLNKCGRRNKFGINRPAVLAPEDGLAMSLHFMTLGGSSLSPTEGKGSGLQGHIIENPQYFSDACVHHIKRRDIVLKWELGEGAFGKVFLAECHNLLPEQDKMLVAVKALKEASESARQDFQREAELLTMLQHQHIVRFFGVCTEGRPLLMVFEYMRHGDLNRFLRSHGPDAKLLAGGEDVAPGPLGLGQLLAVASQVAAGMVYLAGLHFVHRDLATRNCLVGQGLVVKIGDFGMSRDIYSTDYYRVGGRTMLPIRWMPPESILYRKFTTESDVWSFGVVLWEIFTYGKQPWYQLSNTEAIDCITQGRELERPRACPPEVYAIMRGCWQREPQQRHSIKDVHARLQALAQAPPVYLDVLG

[5] = target: T2, Mitogen-activated protein kinase kinase kinase 2 (Homo sapiens) (UniProt Q9Y2U5); assay: Inhibition of human MEKK2 at 500 nM by HotSpot assay relative to control
T2 sequence (whole entry): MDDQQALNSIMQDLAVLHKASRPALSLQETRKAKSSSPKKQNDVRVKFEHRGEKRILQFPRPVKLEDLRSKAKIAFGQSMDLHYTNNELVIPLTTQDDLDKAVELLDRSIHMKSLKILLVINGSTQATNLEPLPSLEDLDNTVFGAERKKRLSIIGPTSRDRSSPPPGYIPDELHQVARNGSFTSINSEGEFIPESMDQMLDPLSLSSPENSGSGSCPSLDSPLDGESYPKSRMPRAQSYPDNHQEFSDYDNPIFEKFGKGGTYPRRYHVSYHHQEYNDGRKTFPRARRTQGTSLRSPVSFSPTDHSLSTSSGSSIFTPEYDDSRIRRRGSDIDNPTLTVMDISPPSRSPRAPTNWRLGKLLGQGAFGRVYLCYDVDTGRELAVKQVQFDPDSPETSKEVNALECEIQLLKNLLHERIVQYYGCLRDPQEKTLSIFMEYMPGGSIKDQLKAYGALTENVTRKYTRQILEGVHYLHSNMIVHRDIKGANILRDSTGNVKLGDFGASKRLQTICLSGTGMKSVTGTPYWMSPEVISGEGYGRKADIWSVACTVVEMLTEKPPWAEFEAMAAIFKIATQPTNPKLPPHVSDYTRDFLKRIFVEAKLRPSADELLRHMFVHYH

[6] = target: Protein kinase C theta type (Homo sapiens) (UniProt Q04759); assay: Inhibition of human PKCtheta at 500 nM by HotSpot assay relative to control
Chain of Protein kinase C theta type (Homo sapiens) (Q04759 whole entry, looked up): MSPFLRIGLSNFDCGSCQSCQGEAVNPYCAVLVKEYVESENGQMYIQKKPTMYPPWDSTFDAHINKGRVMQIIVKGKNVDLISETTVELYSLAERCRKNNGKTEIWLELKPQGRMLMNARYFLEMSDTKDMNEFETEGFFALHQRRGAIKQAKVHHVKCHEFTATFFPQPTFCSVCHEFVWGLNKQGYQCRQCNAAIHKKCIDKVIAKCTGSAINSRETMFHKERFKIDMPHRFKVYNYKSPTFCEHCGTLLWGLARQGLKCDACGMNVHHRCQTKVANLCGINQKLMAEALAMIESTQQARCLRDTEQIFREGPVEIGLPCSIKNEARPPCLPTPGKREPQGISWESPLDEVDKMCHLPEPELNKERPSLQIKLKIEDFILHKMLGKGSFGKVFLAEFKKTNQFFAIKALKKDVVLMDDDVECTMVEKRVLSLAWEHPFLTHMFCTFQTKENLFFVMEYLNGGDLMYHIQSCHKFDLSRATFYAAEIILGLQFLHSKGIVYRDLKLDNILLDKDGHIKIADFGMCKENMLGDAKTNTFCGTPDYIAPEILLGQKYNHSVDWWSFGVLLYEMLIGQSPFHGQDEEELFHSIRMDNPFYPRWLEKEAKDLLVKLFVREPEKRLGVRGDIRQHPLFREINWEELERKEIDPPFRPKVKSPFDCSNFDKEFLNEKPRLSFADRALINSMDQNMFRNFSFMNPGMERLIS

[7] = target: Serine/threonine-protein kinase PLK1 (Homo sapiens) (UniProt P53350); assay: Inhibition of human PLK1 at 500 nM by HotSpot assay relative to control
Chain of Serine/threonine-protein kinase PLK1 (Homo sapiens) (P53350 whole entry): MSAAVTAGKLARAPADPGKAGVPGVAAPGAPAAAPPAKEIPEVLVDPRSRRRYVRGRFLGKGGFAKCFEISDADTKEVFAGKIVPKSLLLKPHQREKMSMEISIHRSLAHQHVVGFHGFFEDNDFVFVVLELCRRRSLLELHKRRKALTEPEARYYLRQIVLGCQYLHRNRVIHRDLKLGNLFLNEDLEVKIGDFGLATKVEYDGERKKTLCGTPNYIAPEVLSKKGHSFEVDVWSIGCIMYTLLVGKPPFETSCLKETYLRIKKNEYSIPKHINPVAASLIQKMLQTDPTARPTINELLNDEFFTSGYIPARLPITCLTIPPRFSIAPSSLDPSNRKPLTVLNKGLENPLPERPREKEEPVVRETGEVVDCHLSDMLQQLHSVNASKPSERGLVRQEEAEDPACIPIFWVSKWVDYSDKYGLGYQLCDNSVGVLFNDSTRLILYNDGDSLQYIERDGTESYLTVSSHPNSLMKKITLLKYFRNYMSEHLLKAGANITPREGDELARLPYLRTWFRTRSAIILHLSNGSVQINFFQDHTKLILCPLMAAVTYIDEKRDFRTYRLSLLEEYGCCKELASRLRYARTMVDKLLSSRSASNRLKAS

[8] = target: T3, cGMP-dependent protein kinase 1 (Homo sapiens) (UniProt Q13976); assay: Inhibition of human PKG1a at 500 nM by HotSpot assay relative to control
T3 sequence (whole entry): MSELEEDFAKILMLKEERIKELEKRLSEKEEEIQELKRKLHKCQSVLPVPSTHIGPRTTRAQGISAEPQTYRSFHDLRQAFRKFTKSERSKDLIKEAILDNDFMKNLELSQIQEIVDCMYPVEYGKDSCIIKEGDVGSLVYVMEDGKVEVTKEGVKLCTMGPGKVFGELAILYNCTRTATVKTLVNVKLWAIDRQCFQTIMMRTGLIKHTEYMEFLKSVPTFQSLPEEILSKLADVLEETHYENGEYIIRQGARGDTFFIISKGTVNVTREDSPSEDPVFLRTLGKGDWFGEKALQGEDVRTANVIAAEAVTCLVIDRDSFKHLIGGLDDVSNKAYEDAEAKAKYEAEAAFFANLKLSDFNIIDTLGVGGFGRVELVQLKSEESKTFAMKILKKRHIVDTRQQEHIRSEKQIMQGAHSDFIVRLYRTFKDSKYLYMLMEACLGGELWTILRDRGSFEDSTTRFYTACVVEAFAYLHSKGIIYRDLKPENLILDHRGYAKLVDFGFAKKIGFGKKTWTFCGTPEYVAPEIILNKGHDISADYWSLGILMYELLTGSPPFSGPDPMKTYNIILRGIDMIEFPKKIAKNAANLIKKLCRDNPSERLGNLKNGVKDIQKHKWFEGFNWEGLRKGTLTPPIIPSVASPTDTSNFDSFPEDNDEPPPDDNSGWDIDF

[9] = target: Insulin receptor (Homo sapiens) (UniProt P06213); assay: Inhibition of wild-type human Insulin receptor activation transfected in insulin-stimulated CHO-K1 cells; assay type: cell-based
Chain of Insulin receptor (Homo sapiens) (P06213 28-758 limits assumed): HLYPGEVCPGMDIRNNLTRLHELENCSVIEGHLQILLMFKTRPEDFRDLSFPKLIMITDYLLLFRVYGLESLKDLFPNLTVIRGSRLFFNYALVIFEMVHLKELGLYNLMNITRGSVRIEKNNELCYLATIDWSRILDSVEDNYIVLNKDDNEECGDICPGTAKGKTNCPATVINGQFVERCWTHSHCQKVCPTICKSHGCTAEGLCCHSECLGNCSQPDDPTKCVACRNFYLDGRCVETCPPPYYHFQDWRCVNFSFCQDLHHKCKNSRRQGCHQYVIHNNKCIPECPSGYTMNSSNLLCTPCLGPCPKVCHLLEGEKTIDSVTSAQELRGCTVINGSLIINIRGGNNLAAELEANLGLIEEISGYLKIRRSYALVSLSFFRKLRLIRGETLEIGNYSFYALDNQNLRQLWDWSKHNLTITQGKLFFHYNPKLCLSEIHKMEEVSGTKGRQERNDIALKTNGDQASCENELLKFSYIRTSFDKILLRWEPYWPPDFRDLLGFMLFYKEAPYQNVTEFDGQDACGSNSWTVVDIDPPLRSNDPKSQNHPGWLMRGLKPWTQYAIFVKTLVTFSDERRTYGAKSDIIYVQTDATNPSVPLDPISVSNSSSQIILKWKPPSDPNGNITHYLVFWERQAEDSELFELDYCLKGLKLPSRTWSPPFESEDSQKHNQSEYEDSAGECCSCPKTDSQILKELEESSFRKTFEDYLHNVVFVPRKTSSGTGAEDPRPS
Chain of Insulin receptor (Homo sapiens) (P06213 763-1382 limits assumed): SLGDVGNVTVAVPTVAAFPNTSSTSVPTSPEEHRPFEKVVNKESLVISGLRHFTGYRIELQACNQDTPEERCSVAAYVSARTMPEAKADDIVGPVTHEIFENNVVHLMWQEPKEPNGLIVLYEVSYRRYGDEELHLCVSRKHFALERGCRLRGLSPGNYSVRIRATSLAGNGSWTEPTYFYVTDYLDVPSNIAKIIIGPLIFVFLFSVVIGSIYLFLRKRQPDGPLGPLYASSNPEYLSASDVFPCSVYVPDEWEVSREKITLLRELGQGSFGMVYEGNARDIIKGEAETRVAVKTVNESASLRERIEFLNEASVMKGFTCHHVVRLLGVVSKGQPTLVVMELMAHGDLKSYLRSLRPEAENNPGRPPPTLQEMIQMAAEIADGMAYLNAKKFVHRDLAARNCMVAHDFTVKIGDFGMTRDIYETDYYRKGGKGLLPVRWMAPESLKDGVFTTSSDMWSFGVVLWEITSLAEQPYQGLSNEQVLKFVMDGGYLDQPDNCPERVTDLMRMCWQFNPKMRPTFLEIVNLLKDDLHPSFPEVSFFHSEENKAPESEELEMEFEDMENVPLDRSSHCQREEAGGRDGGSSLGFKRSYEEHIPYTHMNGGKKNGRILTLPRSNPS

Chain of Homeodomain-interacting protein kinase 2 (Homo sapiens) (Q9H2X6 whole entry, looked up): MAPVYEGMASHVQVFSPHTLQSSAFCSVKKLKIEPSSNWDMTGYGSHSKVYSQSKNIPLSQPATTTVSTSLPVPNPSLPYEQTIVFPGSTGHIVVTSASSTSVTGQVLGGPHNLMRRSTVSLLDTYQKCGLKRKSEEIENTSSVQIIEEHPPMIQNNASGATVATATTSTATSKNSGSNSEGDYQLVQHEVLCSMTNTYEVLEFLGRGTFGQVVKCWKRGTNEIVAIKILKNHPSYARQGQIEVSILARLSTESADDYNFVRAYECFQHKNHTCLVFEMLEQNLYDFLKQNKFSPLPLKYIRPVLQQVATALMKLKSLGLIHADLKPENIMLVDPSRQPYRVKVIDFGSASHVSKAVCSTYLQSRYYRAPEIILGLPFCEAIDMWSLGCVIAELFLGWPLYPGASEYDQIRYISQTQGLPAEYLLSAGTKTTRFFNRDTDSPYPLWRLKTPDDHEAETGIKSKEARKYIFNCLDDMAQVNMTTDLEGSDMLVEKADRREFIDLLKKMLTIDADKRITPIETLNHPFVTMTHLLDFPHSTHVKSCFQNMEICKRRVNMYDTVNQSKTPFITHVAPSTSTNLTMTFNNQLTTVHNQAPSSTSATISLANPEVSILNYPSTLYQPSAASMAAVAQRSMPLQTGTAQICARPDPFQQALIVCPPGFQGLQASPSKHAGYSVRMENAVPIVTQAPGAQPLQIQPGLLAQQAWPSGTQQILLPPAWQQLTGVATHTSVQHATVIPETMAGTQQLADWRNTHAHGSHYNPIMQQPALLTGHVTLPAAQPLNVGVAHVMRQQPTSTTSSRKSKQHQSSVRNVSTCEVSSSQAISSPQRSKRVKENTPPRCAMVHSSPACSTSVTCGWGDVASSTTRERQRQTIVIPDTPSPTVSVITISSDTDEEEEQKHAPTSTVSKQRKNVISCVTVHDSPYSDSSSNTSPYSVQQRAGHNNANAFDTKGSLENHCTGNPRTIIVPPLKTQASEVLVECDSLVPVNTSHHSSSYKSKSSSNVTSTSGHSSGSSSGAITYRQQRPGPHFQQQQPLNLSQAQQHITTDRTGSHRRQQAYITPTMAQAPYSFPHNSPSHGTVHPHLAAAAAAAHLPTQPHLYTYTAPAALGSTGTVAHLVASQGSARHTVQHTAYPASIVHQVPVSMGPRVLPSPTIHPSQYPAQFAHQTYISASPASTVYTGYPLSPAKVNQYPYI

Oc1n[nH]c2nnc(-c3c(-c4ccccc4)nn4ccccc34)cc12
inhibition [1]: 4.74% | inhibition [2]: -0.79% | inhibition [3]: 2.52% | inhibition [4]: 4.28% | inhibition [5]: -0.17% | inhibition [6]: 8.59% | inhibition [7]: 2.92% | inhibition [8]: -5.37% | inhibition [9]: inactive

Nc1n[nH]c2nnc(-c3c(-c4ccccc4)nn4ccccc34)cc12
inhibition [1]: 2.31% | inhibition [2]: 0.35% | inhibition [3]: 1.38% | inhibition [4]: -1.03% | inhibition [5]: 2.22% | inhibition [6]: 20.1% | inhibition [7]: 1.9% | inhibition [8]: 6.39% | inhibition [9]: inactive
